Results as given in patent US7951838B2, “Substituted spirocyclic chromanamine compounds as Beta-Secretase modulators and methods of use” (Amgen Inc., priority 2007, dated 2011).

Experiments:
BACE [1] = target: T1, BACE (Homo sapiens, UniProt P56817); assay: BACE cell-based assay (Cell Assay), inhibition of Aβ40 by sandwich ELISA; conditions: Aβ40 in conditioned medium of cells stably expressing APP, 24 h incubation
T1 construct: Cells stably expressing Amyloid Precursor Protein (APP) were plated at a density of 40K cells/well in 96 well plates; endogenous in cells
Procedure: BACE Cell-Based Assay (Cell Assay)
The cell-based assay measures inhibition or reduction of Aβ40 in conditioned medium of test compound treated cells expressing amyloid precursor protein.
Cells stably expressing Amyloid Precursor Protein (APP) were plated at a density of 40K cells/well in 96 well plates (Costar). The cells were cultivated for 24 hours at 37° C. and 5% CO2 in DMEM supplemented with 10% FBS. The test compounds were then added to cells in 10-point dose response concentrations with the starting concentration being either 100 μM or 10 μM. The compounds were diluted from stock solutions in DMSO and the final DMSO concentration of the test compounds on cells was 0.1%. After 24 h of incubation with the test compounds the supernatant conditioned media was collected and the Aβ40 levels were determined using a sandwich ELISA. The IC50 of the compound was calculated from the percent of control or percent inhibition of Aβ40 as a function of the concentration of the test compound.
The sandwich ELISA to detect Aβ40 was performed in 96 well microtiter plates, which were pre-treated with goat anti-rabbit IgG (Pierce). The capture and detecting antibody pair that were used to detect Aβ40 from cell supernatants were affinity purified pAb40 (Biosource) and biotinylated 6E10 (Signet Labs Inc.), respectively. The optimal concentration for the pAb40 antibody was 3 μg/ml in Superblock/TBS (Pierce) that was supplemented with 0.05% Tween 20 (Sigma). Optimal concentration for the detection antibody 6E10-biotinylated was 0.5 μg/ml in Superblock/TBS (Pierce) that had been supplemented with 2% normal goat serum and 2% normal mouse serum.
Cellular supernatants were incubated with the capture antibody for 3 h at 4° C., followed by 3 wash steps in TBS-tween (0.05%). The detecting antibody incubation was for 2 h at 4° C., again followed by the wash steps as described previously. The final readout of the ELISA is Time-Resolved Fluorescence (counts per minute) using Delfia reagents Streptavidin-Europium and Enhancement solutions (Perkin Elmer) and the Victor 2 multilabel counter (Perkin Elmer).

BACE [2] = target: T1, BACE; assay: In vitro enzymatic BACE FRET assay (Enzyme Assay); format: biochemical; conditions: pH 4.2, enzyme 0.2 nM, FRET substrate 50 nM
Procedure: In Vitro Enzymatic BACE FRET (Fluorescence Resonance Energy Transfer) Assay (Enzyme Assay)
Assay buffer is 0.05 M acetate, pH 4.2, 10% DMSO final, 100 uM genapol (which is a nonionic detergent, below it's Critical Micelle Concentration). Enzyme (0.2 nM) is pre-incubated for one hour with inhibitors added in 1 uL of DMSO. Then the assay is started by the addition of FRET substrate (50 nM) and incubated for one hour. The FRET assay is terminated with by addition of Tris buffer, which raises the pH to neutrality, and the fluorescence is determined The FRET substrate is a peptide with commercially available fluorophore and quencher, on opposite sides of the BACE cleavage site. Proteolytic cleavage of the FRET substrate releases quenching of fluorescence (excitation 488 nm and […]).

T1 sequence (P56817 46-501): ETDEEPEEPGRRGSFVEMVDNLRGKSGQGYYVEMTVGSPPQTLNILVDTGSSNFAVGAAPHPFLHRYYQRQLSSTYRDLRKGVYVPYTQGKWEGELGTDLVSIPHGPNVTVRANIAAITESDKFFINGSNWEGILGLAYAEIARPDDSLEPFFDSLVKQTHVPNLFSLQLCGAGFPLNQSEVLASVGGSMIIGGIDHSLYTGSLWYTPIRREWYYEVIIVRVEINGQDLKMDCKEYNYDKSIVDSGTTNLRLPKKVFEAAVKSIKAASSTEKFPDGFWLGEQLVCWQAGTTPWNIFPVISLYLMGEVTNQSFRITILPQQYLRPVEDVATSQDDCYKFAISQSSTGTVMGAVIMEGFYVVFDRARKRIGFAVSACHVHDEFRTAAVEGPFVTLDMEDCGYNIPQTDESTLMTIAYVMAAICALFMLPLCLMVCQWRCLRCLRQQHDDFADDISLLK

Structure (SMILES)	IC50 (BACE [1]) [µM]	IC50 (BACE [2]) [µM]
CCc1ccc2c(c1)[C@@H](NC[C@@H](O)[C@H](Cc1cccc(C#N)c1)Nc1ccccc1F)CC1(CCC1)O2 [Example 27, 3-((2S,3R)-4-(((4S)-6-ethyl-3,4-dihydrospiro[chromene-2,1′-cyclobutan]-4-yl)amino)-2-((2-fluorophenyl)amino)-3-hydroxybutyl)benzonitrile]	0.1 to 1	1 to 5
CSc1nc(Cl)cc(N[C@@H](Cc2ccc(F)cc2)[C@H](O)CN[C@H]2CC3(CCC3)Oc3ncc(CC(C)(C)C)cc32)n1 [Example 34, (2R,3S)-3-((6-chloro-2-(methylthio)-4-pyrimidinyl)amino)-1-(((4′S)-6′-(2,2-dimethylpropyl)-3′,4′-dihydrospiro[cyclobutane-1,2′-pyrano[2,3-b]pyridin]-4′-yl)amino)-4-(4-fluorophenyl)-2-butanol]	10 to 25	5 to 10
CC(C)(C)Cc1cnc2c(c1)[C@@H](NC[C@@H](O)[C@H](Cc1ccc(F)cc1)Nc1cc(Cl)ncn1)CC1(CCC1)O2 [Example 28, (2R,3S)-3-((6-chloro-4-pyrimidinyl)amino)-1-(((4′S)-6′-(2,2-dimethylpropyl)-3′,4′-dihydrospiro[cyclobutane-1,2′-pyrano[2,3-b]pyridin]-4′-yl)amino)-4-(4-fluorophenyl)-2-butanol]	10 to 25	1 to 5
CCc1ccc2c(c1)[C@@H](NC[C@@H](O)[C@H](Cc1ccccc1)Nc1nc3ccccc3o1)CC1(CCC1)O2 [Example 36, (2R,3S)-3-(1,3-benzoxazol-2-ylamino)-1-(((4S)-6-ethyl-3,4-dihydrospiro[chromene-2,1′-cyclobutan]-4-yl)amino)-4-phenyl-2-butanol]	1 to 5	10 to 25
CCc1ccc2c(c1)[C@@H](NC[C@@H](O)[C@H](Cc1ccccc1)Nc1ncccn1)CC1(CCC1)O2 [Example 38, (2R,3S)-1-((S)-6-ethyl-2,2-spirocyclobutyl-chroman-4-ylamino)-4-phenyl-3-(pyrimidin-2-ylamino)butan-2-ol]	10 to 25	10 to 25
CCc1ccc2c(c1)[C@@H](NC[C@@H](O)[C@H](Cc1ccccc1)Nc1cccnc1)CC1(CCC1)O2 [Example 43, (2R,3S)-1-(((4S)-6-ethyl-3,4-dihydrospiro[chromene-2,1′-cyclobutan]-4-yl)amino)-4-phenyl-3-(3-pyridinylamino)-2-butanol]	10 to 25	10 to 25
